Data: patent publication US20100009935A1, “RESISTANCE-REPELLENT […] INHIBITORS” (priority 2002, published 2010)
Like-named read-outs stand apart in the source and are kept apart here.

Assays:
Assay type in all cases: cell-based
HIV-1 clinical isolate 6 = experiment: PI sensitivity of PI-resistant clinical isolate 6 in PHA-PBMC, p24
HIV-1 clinical isolate 1 = experiment: PI sensitivity of PI-resistant clinical isolate 1 in PHA-PBMC, p24
[1] = test system: highly cross-resistant HIV-1 strains derived from AIDS patients
HIV-1LAI = experiment: microbe, parasite or virus in culture; details: day 7, read-out: MEAN IC50 (μM) ± SDs
Procedure: (§1) The sensitivities of HIV-1LAI, HIV-1Ba-L, HIV-2EHO and the primary HIV-1 isolates against various drugs were determined as previously described with minor modifications (Shiraska et al., Proc. Natl. Acad. Sci. USA, 92, 2398-2402 (1995)).

HIV-1Ba-L = experiment: microbe, parasite or virus in culture; details: Human immunodeficiency virus 1, 168 h, PBNC (PHA-PBMC), p24 production, day 7, read-out: MEAN IC50 (μM) ± SDs
Procedure: as §1

HIV-1 clinical isolate 7 = experiment: PI sensitivity of PI-resistant clinical isolate 7 in PHA-PBMC, p24
HIV-1 clinical isolate 3 = experiment: PI sensitivity of PI-resistant clinical isolate 3 in PHA-PBMC, p24
HIV-1 clinical isolate 2 = experiment: PI sensitivity of PI-resistant clinical isolate 2 in PHA-PBMC, p24
HIV-1 clinical isolate 8 = experiment: PI sensitivity of PI-resistant clinical isolate 8 in PHA-PBMC, p24
HIV-1 clinical isolate 4 = experiment: PI sensitivity of PI-resistant clinical isolate 4 in PHA-PBMC, p24
HIV-1APV-P30 = experiment: PI sensitivity of APV-selected HIV-1APV-P30 in MT-2 cells, MTT assay
HIV-1 clinical isolate 5 = experiment: PI sensitivity of PI-resistant clinical isolate 5 in PHA-PBMC, p24
HIV-1NL4-3 = test system: HIV-1NL4-3
HIV-1UIC-P62 = experiment: PI sensitivity of compound 1-selected HIV-1UIC-P62 in MT-2 cells, MTT assay; details: Human immunodeficiency virus 1, MT2, 168 h, HIV-1UIC-P62 (L10F, A28S, M46I, I50V, A71V, N88D), day 7
HIV-2EHO = experiment: Drug sensitivity of HIV-2EHO in MT-2 cells, MTT assay; details: Human immunodeficiency virus 2, MT2, 168 h, HT-2 (footnote: MT-2 cells), day 7, read-out: MEAN IC50 (μM) ± SDs
Procedure: as §1

[2] = test system: HIV-1ERS104pre (wild-type clinical strain); experiment: PI sensitivity of wild-type clinical isolate in PHA-PBMC, p24

## CC(C)(C)NC(=O)[C@@H]1C[C@@H]2CCCC[C@@H]2CN1C[C@@H](O)[C@H](Cc1ccccc1)NC(=O)[C@H](CC(N)=O)NC(=O)c1ccc2ccccc2n1 [SQV, Saquinavir]
HIV-1 clinical isolate 6; Human immunodeficiency virus 1, isolate 6: L10I, K14R, B41K, H46L, I54V, L63P, A71V, V82A, L90M, I93L, PHA-PBMC, p24
  IC50: 190 nM
HIV-1 clinical isolate 6; isolate 6 compared to HIV-1wt (HIV-1ERS104pre)
  FOLD CHANGE of IC50: (19) fold
HIV-1 clinical isolate 1; Human immunodeficiency virus 1, isolate 1: L10I, K14R, L33I, N36I, H46I, F53L, K55R, I62V, L63P, A71V, G73S, V82A, L90M, I93L, PHA-PBMC, p24
  IC50: 270 nM
HIV-1 clinical isolate 1; isolate 1 compared to HIV-1wt (HIV-1ERS104pre)
  FOLD CHANGE of IC50: (27) fold
[1]; compared to wild-type clinical strain HIV-1ERS104pre
  level of resistance (fold), range over the isolates: 3-31 fold
[1]; multidrug resistant patient isolates
  antiviral activity against patient isolates with multiple mutations compared with wild type HIV strains (in words): dramatically less potent
HIV-1LAI; Human immunodeficiency virus 1, 168 h, PBMC (PHA-PBMC), p24 production
  IC50: 0.011 ± 0.005 µM
HIV-1LAI; Human immunodeficiency virus 1, MT2, 168 h, HT-2 (footnote: MT-2 cells), MTT assay
  IC50: 0.023 ± 0.002 µM
HIV-1Ba-L
  IC50: 0.014 ± 0.01 µM
HIV-1 clinical isolate 7; Human immunodeficiency virus 1, isolate 7: L10I, L24I, L33F, E35D, H36I, H37S, N46L, I54V, R57K, I62V, L63P, A71V, G73S, V82A, PHA-PBMC, p24
  IC50: 120 nM
HIV-1 clinical isolate 7; isolate 7 compared to HIV-1wt (HIV-1ERS104pre)
  FOLD CHANGE of IC50: (12) fold
HIV-1 clinical isolate 3; Human immunodeficiency virus 1, isolate 3: L10I, I15V, E35D, N37E, K45R, I54V, L63P, A71V, V82I, L90N, I93L, C95F, PHA-PBMC, p24
  IC50: 36 nM
HIV-1 clinical isolate 3; isolate 3 compared to HIV-1wt (HIV-1ERS104pre)
  FOLD CHANGE of IC50: (4) fold
HIV-1 clinical isolate 2; Human immunodeficiency virus 1, isolate 2: L10I, I15V, K20R, N36I, H46L, I54V, K55R, I62V, L63P, K70D, V82A, L89N, PHA-PBMC, p24
  IC50: 37 nM
HIV-1 clinical isolate 2; isolate 2 compared to HIV-1wt (HIV-1ERS104pre)
  FOLD CHANGE of IC50: (4) fold
HIV-1 clinical isolate 8; Human immunodeficiency virus 1, isolate 8: L10R, H37D, N46I, I62V, L63P, A71V, G73S, V77I, V82T, L90M, I93L, PHA-PBMC, p24
  IC50: 42 nM
HIV-1 clinical isolate 8; isolate 8 compared to HIV-1wt (HIV-1ERS104pre)
  FOLD CHANGE of IC50: (4) fold
HIV-1 clinical isolate 4; Human immunodeficiency virus 1, isolate 4: L10I, V11I, T12E, I15V, L19I, B41K, H46L, L63P, A71T, V82A, L90M, PHA-PBMC, p24
  IC50: 33 nM
HIV-1 clinical isolate 4; isolate 4 compared to HIV-1wt (HIV-1ERS104pre)
  FOLD CHANGE of IC50: (3) fold
HIV-1APV-P30; HIV-1APV-P30 compared to HIV-1NL4-3 (wild type)
  FOLD CHANGE of IC50: (2) fold
HIV-1APV-P30; Human immunodeficiency virus 1, MT2, 168 h
  IC50: 35 nM
HIV-1 clinical isolate 5; Human immunodeficiency virus 1, isolate 5: L10I, K43T, N46L, I54L, L63P, A71T, V82A, L90N, D92K, PHA-PBMC, p24
  IC50: 310 nM
HIV-1 clinical isolate 5; isolate 5 compared to HIV-1wt (HIV-1ERS104pre)
  FOLD CHANGE of IC50: (31) fold
HIV-1NL4-3; HIV-1NL4-3, reference (=1)
  FOLD CHANGE of IC50: (1) fold
HIV-1NL4-3; Human immunodeficiency virus 1, MT2, 168 h, HIV-1NL4-3 (wild type), MT-2 cells, MTT assay, day 7
  IC50: 19 nM
HIV-1UIC-P62
  IC50: 10 nM
HIV-2EHO
  IC50: 0.004 ± 0.0005 µM
[2]; Human immunodeficiency virus 1, read-out: IC50 μM
  IC50: 0.03 µM
[2]; wild type HIV-1ERS104pre, reference (=1)
  FOLD CHANGE of IC50: (1) fold
